Legend:
RXFP4 (HRXFP4 CHO cells) = molecular target: T1, RXFP4 (HRXFP4 CHO cells) (Homo sapiens, UniProt Q8TDU9); test: Ligand receptor affinity detection (Eu-R3/I5 competition on HRXFP4 CHO cells); assay type: binding; conditions: for Ki: 5 nM Eu-R3/I5, 1 hour room temperature, read-out: pKi ± S.E.M. (converted); for Span ± S.E.M. (% R3/I5): 5 nM Eu-R3/I5, relative to R3/I5
T1 construct: expressed in transfected cells; host or cells: CHO
Method: 2. Detection Method: Ligand Receptor Affinity Detection
Stably transfected HRXFP4 CHO cells and Eu—R3/I5 (lanthanide element europium labeled chimeric peptide R3/I5), BMG POLARstar reader (BMG Labtech), and test compound.
HRXFP4 CHO was introduced into a 96 well plate at 80000 cells per well. After 24 hours of cell culture in the incubator, discarded the supernatant, and washed once with PBS, then a binding buffer containing 1% BSA was added and incubated at room temperature for 1 hour. The cell plate was then washed once with PBS, followed by the addition of different concentrations of positive controls and test compounds, and incubated at room temperature with 5 nM Eu—R3/I5 for 1 hour.
After washing the cell plate once with PBS, an enhancement solution was added. After 45 minutes, the fluorescence value was measured using a BMG POLARstar reader (excitation wavelength of 340 nm, detection emission wavelength of 614 nm).

[1] = molecular target: T2, human RXFP4 (hRXFP4-CHO stably transfected cell line) (Homo sapiens, UniProt Q8TDU9); test: Measurement of intracellular cAMP concentration (in vitro RXFP4 agonist activity); assay type: cell-based; conditions: hRXFP4-CHO cells, 500 nM Forskolin; for Emax ± S.E.M. (% INSL5): relative to INSL5
T2 construct: expressed in transfected cells; host or cells: CHO
Method: 1. Detection Method: Measurement of Intracellular cAMP Concentration
CAMP detection kit (PerkinElmer), cell culture box (Thermo Fisher Scientific), EnVision multifunctional enzyme-linked immunosorbent assay (PerkinElmer), Forskolin (Sigma Aldrich), IBMX (Sigma Aldrich), DSMO (Sigma Aldrich), hINSL5 (Genova, human insulin-like peptide 5), hRXFP4-CHO stably transfected cell line for stable expression of human RXFP4, and test compound.
Stably transfected hRXFP4-CHO cells were seeded at 2.5×10^5 cells/mL the day before the experiment to maintain a growth density of 70%-80% in the culture dish the next day. On the day of the experiment, cells were digested with trypsin free digestion solution or 0.02% EDTA PBS solution, centrifugated, the supernatant was discarded, and cAMP experimental buffer (0.5 mM IBMX+5 mM HEPES+0.1% BSA) was prepared using 1×HBSS (calcium and magnesium free) solution. The cells were resuspended and inoculated to a 384 well plate at 4000 cells per well. The compound which was diluted with DMSO to different concentrations were added to the above 384 well plate. At the same time, 500 nM Forskolin was added and incubated at room temperature for 40 minutes. Then Eu cAMP and ULight anti cAMP working solutions were added according to the cAMP detection kit instructions. After incubation at room temperature for 40 minutes, an EnVision multifunctional enzyme-linked immunosorbent assay reader was used to read the results (excitation wavelength of 320 or 340 nm, detection emission wavelength of 665 nm).

T1 sequence (Q8TDU9 whole entry): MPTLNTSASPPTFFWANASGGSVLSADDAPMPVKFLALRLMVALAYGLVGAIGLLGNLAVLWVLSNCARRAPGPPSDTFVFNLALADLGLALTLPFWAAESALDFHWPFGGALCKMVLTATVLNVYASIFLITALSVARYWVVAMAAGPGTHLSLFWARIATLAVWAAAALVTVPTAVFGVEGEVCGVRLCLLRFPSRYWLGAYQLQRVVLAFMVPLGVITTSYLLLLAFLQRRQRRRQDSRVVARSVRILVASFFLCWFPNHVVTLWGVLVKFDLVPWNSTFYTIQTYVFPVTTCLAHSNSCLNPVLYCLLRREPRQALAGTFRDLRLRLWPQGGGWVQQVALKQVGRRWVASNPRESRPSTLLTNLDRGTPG
T2 sequence (Q8TDU9 whole entry): as above

Row | Structure (SMILES) | Ki (RXFP4 (HRXFP4 CHO cells)) | EC50 ([1]; 40 minutes room temperature) | Emax ± S.E.M. (% INSL5) [1] | Span ± S.E.M. (% R3/I5) (RXFP4 (HRXFP4 CHO cells)) | pEC50 ± S.E.M. ([1]; 40 minutes room temperature)
1 | CCOc1cc2c(cc1OC)CCN(C(=O)N1CCOCC1)[C@@H]2CCc1c[nH]c2ccc(OC)cc12 [(R)-A1, (R)-(7-ethoxy-6-methoxy-1-(2-(5-methoxy-1H-indol-3-yl)ethyl)-3,4-dihydroisoquinolin-2(1H)-yl)(morpholino)methanone] | > 100000 nM | 933 nM | 60.14 ± 10.64 % INSL5 | – | –
2 | CCOc1cc2c(cc1OC)CCN(C(=O)c1cscn1)[C@H]2CCc1c[nH]c2ccc(OC)cc12 [Compound A80, (S)-(7-ethoxy-6-methoxy-1-(2-(5-methoxy-1H-indol-3-yl)ethyl)-3,4-dihydroisoquinolin-2(1H)-yl) (thiazol-4-yl)methanone] | > 100000 nM | – | – | – | –
3 | CCOc1cc2c(cc1OC)CCN(C(=O)N1CCOCC1)C2CCc1c[nH]c2c(CC)cccc12 (stereo not drawn) [Compound A60, (7-Ethoxy-1-(2-(7-ethyl-1H-indol-3-yl)ethyl)-6-methoxy-3,4-dihydroisoquinolin-2(1H)-yl) (morpholino)methanone] | 1700 nM | 417 nM | 72.49 ± 8.04 % INSL5 | 75.02 ± 7.56 % R3/I5 | –
4 | CCOc1cc2c(cc1OC)CCN(C(=O)N1CCS(=O)(=O)CC1)C2CCc1c[nH]c2ccc(OC)cc12 (stereo not drawn) [Compound A6, (1,1-dioxothiomorpholino) (7-ethoxy-6-methoxy-1-(2-(5-methoxy-1H-indol-3-yl)ethyl)-3,4-dihydroisoquinolin-2(1H)-yl)methylmethanone] | > 100000 nM | 9330 nM | 51.74 ± 6.72 % INSL5 | – | –
5 | CCOc1cc2c(cc1OC)CCN(C(=O)N1CCOCC1)C2CCc1c[nH]c2ccc(C#N)cc12 (stereo not drawn) [Compound A57, 3-(2-(7-ethoxy-6-methoxy-2-(morpholine-4-carbonyl)-1,2,3,4-tetrahydroisoquinolin-1-yl)ethyl)-1H-indole-5-carbonitrile] | 129 nM | 27.5 nM | 82.15 ± 4.95 % INSL5 | 92.06 ± 3.95 % R3/I5 | –
6 | CCOc1cc2c(cc1OC)CCN(C(=O)N1CCOCC1)C2CCc1c[nH]c2c(C)cc(OC)cc12 (stereo not drawn) [Compound A58, (7-ethoxy-6-methoxy-1-(2-(5-methoxy-7-methyl-1H-indol-3-yl)ethyl)-3,4-dihydroisoquinolin-2(1H)-yl)(morpholino) methanone] | > 100000 nM | 447 nM | 92.58 ± 7.46 % INSL5 | – | –
7 | COc1cc2c(cc1OC)C(Cc1c[nH]c3ccccc13)N(CC1CCOCC1)CC2 (stereo not drawn) [Compound A83] | > 100000 nM | – | – | – | –
8 | CCOc1cc2c(cc1OC)CCN(C(=O)N1CCOCC1)C2CCc1c[nH]c2ccc(OC)cc12 (stereo not drawn) [Compound A1, (7-ethoxy-6-methoxy-1-(2-(5-methoxy-1H-indol-3-yl)ethyl)-3,4-dihydroisoquinolin-2(1H)-yl) (morpholino)methanone] | 148 nM | 87.1 nM | 87.64 ± 4.58 % INSL5 | 88.98 ± 6.07 % R3/I5 | –
9 | CCOc1cc2c(cc1OC)CCN(C(=O)N1CC[S+]([O-])CC1)C2CCc1c[nH]c2ccc(OC)cc12 (stereo not drawn) [Compound A5, (7-ethoxy-6-methoxy-1-(2-(5-methoxy-1H-indol-3-yl)ethyl)-3,4-dihydroisoquinolin-2(1H)-yl)(1-oxothiomorpholinyl)methanone] | > 100000 nM | 10200 nM | 56.43 ± 4.70 % INSL5 | – | –
10 | CCOc1cc2c(cc1OC)CCN(C(=O)N1CCOCC1)C2CCc1c[nH]c2ncccc12 (stereo not drawn) [Compound A69, (1-(2-(1H-pyrrolo[2,3-b]pyridin-3-yl)ethyl)-7-ethoxy-6-methoxy-3,4-dihydroisoquinolin-2(1H)-yl) (morpholino)methanone] | > 100000 nM | 10000 nM | 58.19 ± 7.80 % INSL5 | – | –
11 | COc1cc2c(cc1OC)[C@H](CCc1c[nH]c3cc(C)ccc13)N(C(=O)C1CCOCC1)CC2 [Compound A76, (S)-(6,7-dimethoxy-1-(2-(6-methyl-1H-indol-3-yl)ethyl)-3,4-dihydroisoquinolin-2(1H)-yl) (tetrahydro-2H-pyran-4-yl)methanone] | > 100000 nM | 3160 nM | 43.69 ± 7.43 % INSL5 | – | –
12 | CCOc1cc2c(cc1OC)CCN(C(=O)N1CCC(F)CC1)C2CCc1c[nH]c2ccc(OC)cc12 (stereo not drawn) [Compound A3, (4-fluoropiperidin-1-yl) (7-ethoxy-6-methoxy-1-(2-(5-methoxy-1H-indol-3-yl)ethyl)-3,4-dihydroisoquinolin-2(1H)-yl)methanone] | 209 nM | 204 nM | 101.82 ± 9.08 % INSL5 | 86.26 ± 6.71 % R3/I5 | –
13 | COc1ccc2[nH]cc(CCC3c4cc(OCc5ccccc5)c(OC)cc4CCN3C(=O)N3CCOCC3)c2c1 (stereo not drawn) [Compound A30, (7-(benzyloxy)-6-methoxy-1-(2-(5-methoxy-1H-indol-3-yl)ethyl)-3,4-dihydroisoquinolin-2(1H)-yl) (morpholino)methanone] | 851 nM | 427 nM | 82.33 ± 8.47 % INSL5 | 81.61 ± 7.65 % R3/I5 | –
14 | CCOc1cc2c(cc1OC)CCN(C(=O)N1CCC(F)(F)CC1)C2CCc1c[nH]c2ccc(OC)cc12 (stereo not drawn) [Compound A4, (4,4-difluoropiperidin-1-yl) (7-ethoxy-6-methoxy-1-(2-(5-methoxy-1H-indol-3-yl)ethyl)-3,4-dihydroisoquinolin-2(1H)-yl)methanone] | 631 nM | 57.5 nM | 62.00 ± 5.42 % INSL5 | 66.34 ± 7.29 % R3/I5 | –
15 | CCOc1cc2c(cc1OC)CCN(C(=O)c1ccccn1)C2CCc1c[nH]c2ccc(OC)cc12 (stereo not drawn) [Compound A9, (7-ethoxy-6-methoxy-1-(2-(5-methoxy-1H-indol-3-yl)ethyl)-3,4-dihydroisoquinolin-2(1H)-yl) (pyridin-2-yl)methanone] | > 100000 nM | 14800 nM | 44.09 ± 5.25 % INSL5 | – | –
16 | CCOc1cc2c(cc1OC)CCN(C(=O)N1CCOCC1)[C@H]2CCc1c[nH]c2ccc(OC)cc12 [(S)-A1, (S)-(7-ethoxy-6-methoxy-1-(2-(5-methoxy-1H-indol-3-yl)ethyl)-3,4-dihydroisoquinolin-2(1H)-yl)(morpholino)methanone] | 58.9 nM | – | 98.76 ± 5.71 % INSL5 | 81.87 ± 4.47 % R3/I5 | 7.24 ± 0.12
17 | COc1cc2c(cc1OC)C(CCc1c[nH]c3ccccc13)N(C(=O)c1ccncc1)CC2 (stereo not drawn) [Compound A77, (1-(2-(1H-indol-3-yl)ethyl)-6,7-dimethoxy-3,4-dihydroisoquinolin-2(1H)-yl)(pyridin-4-yl)methanone] | > 100000 nM | 437 nM | 25.96 ± 5.50 % INSL5 | – | –

Source: patent US20250340545A1, “TETRAHYDROISOQUINOLINE COMPOUND, PREPARATION METHOD THEREFOR, PHARMACEUTICAL COMPOSITION CONTAINING SAID COMPOUND, AND USE THEREOF” (SHANGHAI INSTITUTE OF MATERIA MEDICA, CHINESE ACADEMY OF …, priority 2022, published 2025)
